# Laboratory results taken from US20230250096A1, “SUBSTITUTED PHENYL-1H-PYRROLO[2,3-c] PYRIDINE DERIVATIVES” (Janssen Pharmaceutica NV, priority 2021, published 2023).
# What was measured:
# MEIS1 mRNA expression = MEIS1 mRNA expression assay (Quantigene Singleplex) in MOLM14 cells; format: cell-based, human; conditions: 48 hours incubation
# Procedure, shortened: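 MOLM14 cells, 3,750/well, exposed to increasing compound concentrations for 48 h. MEIS1 mRNA measured by QuantiGene Singleplex branched-DNA hybridization (lysis 45 min, hybridization 18–22 h, both 55 °C), normalized to RPL28. IC50 fitted to background-corrected fold change versus DMSO.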
# [1] = molecular target: T1, menin/MLL (terbium chelate-labeled menin, FITC-MBM1 peptide) (Homo sapiens, UniProt O00255, T541A); experiment: Menin/MLL homogenous time-resolved fluorescence (HTRF) assay; format: binding; conditions: 30 min incubation
# T1 construct: Menin (a.a 1-610-6xhis tag, 2.3 mg/mL in 20 mM Hepes)
# T1 sequence (O00255 with tags, fused parts or gaps T541A): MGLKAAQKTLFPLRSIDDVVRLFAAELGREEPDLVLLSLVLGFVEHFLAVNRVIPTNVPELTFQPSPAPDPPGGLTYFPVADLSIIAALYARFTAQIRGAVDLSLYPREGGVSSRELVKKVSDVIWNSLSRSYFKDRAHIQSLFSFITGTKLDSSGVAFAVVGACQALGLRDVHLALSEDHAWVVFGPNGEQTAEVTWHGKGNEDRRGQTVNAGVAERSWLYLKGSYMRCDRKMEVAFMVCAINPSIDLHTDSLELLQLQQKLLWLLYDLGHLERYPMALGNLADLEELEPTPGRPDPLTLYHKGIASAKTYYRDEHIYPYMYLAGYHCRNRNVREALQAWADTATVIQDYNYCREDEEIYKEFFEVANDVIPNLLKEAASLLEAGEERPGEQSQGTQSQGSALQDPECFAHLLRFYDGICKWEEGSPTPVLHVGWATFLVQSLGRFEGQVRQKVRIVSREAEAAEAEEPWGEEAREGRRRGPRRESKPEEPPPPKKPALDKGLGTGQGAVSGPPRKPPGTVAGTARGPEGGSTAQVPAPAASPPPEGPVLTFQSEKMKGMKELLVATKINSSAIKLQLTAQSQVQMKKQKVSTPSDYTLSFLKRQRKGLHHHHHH
# Procedure, shortened: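 Terbium-labeled menin (a.a. 1-610, His-tagged; […]) pre-incubated 30 min with compound, then 75 nM FITC-MBM1 peptide added for 15 min at ambient temperature in Tris pH 7.5 buffer, 0.5% DMSO. HTRF 520/490 nm ratio read; IC50 from 11-point four-fold titrations, typically from 10 μM.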
smiles,measurement,setting,value
CCC([C@H]1C[C@@H](N2C[C@H]3CN(C(C)=O)C[C@@H]3C2)C1)N1CC[C@@H](Cc2cn(-c3ccc(F)cc3C(=O)N(C)C(C)C)c3cncc(Cl)c23)C1 (stereo partly shown) [Compound 26b],IC50,MEIS1 mRNA expression,29 nM
same,IC50,[1],~0.036 nM
Cc1cncc2c1c(CC1CN([C@@H](C(C)C)[C@H]3C[C@H](N4CCC(S(C)(=O)=O)CC4)C3)C1)cn2-c1ccc(F)cc1C(=O)N(C)C(C)C [Compound 33b],IC50,"MEIS1 mRNA expression; Homo sapiens, MOLM-14, 48 h",23 nM
same,IC50,[1],0.03 nM
CCN(C(=O)c1cc(F)ccc1-n1cc(CC2CN(C(C(C)C)[C@H]3C[C@H](N4CCN(C(C)=O)CC4)C3)C2)c2c(C)cncc21)C(C)C (stereo partly shown) [Compound 35b],IC50,"MEIS1 mRNA expression; Homo sapiens, MOLM-14, 48 h",47 nM
same,IC50,[1],0.077 nM
CCN(C(=O)c1cc(F)ccc1-n1cc(CC2CN(C(C(C)C)[C@H]3C[C@H](N4CCN(S(C)(=O)=O)CC4)C3)C2)c2c(C)cncc21)C(C)C (stereo partly shown) [Compound 37b],IC50,"MEIS1 mRNA expression; Homo sapiens, MOLM-14, 48 h",28 nM
same,IC50,[1],0.237 nM
Cc1cncc2c1c(CC1CN(CC3CCN(C(=O)OC(C)(C)C)CC3)C1)cn2-c1ccc(F)cc1C(=O)N(C)C(C)C [Compound 62],IC50,"MEIS1 mRNA expression; Homo sapiens, MOLM-14, 48 h",14 nM
same,IC50,[1],0.085 nM
Cc1cncc2c1c(CC1CN(CC3CCN(S(C)(=O)=O)CC3)C1)cn2-c1ccc(F)cc1C(=O)N(C)C(C)C [Compound 64],IC50,"MEIS1 mRNA expression; Homo sapiens, MOLM-14, 48 h",~39 nM
same,IC50,[1],0.284 nM
COC(=O)N1CCC(CN2CC(Cc3cn(-c4ccc(F)cc4C(=O)N(C)C(C)C)c4cncc(C)c34)C2)CC1 [Compound 65],IC50,"MEIS1 mRNA expression; Homo sapiens, MOLM-14, 48 h",45 nM
same,IC50,[1],0.079 nM
Cc1cncc2c1c(CC1CN(CC(=O)N3CCOCC3)C1)cn2-c1ccc(F)cc1C(=O)N(C)C(C)C [Compound 83],IC50,"MEIS1 mRNA expression; Homo sapiens, MOLM-14, 48 h",2220 nM
same,IC50,[1],1.3 nM
Cc1cncc2c1c(CC1CN(C3CC4(CC(NC(=O)OC(C)(C)C)C4)C3)C1)cn2-c1ccc(F)cc1C(=O)N(C)C(C)C (stereo not shown) [Compound 91],IC50,"MEIS1 mRNA expression; Homo sapiens, MOLM-14, 48 h",94 nM
same,IC50,[1],0.155 nM
Cc1cncc2c1c(CC1CN(CC3CCC4(CC3)OCCO4)C1)cn2-c1ccc(F)cc1C(=O)N(C)C(C)C [Compound 92],IC50,"MEIS1 mRNA expression; Homo sapiens, MOLM-14, 48 h",52 nM
same,IC50,[1],0.219 nM
CC(=O)N1CCC(CN2CCC(Cc3cn(-c4ccc(F)cc4S(=O)(=O)C(C)C)c4cncc(C)c34)C2)CC1 (stereo not shown) [Compound 93],IC50,"MEIS1 mRNA expression; Homo sapiens, MOLM-14, 48 h",~360 nM
same,IC50,[1],0.418 nM
CC(=O)N1CCC(CN2CC(Cc3cn(-c4ccc(F)cc4C(=O)N(C)C(C)C)c4cncc(C)c34)C2)C1 (stereo not shown) [Compound 94],IC50,"MEIS1 mRNA expression; Homo sapiens, MOLM-14, 48 h",309 nM
same,IC50,[1],0.079 nM
Cc1cncc2c1c(CC1CN(CC3CCCC(=O)N3)C1)cn2-c1ccc(F)cc1C(=O)N(C)C(C)C (stereo not shown) [Compound 95],IC50,"MEIS1 mRNA expression; Homo sapiens, MOLM-14, 48 h",~914 nM
same,IC50,[1],0.601 nM
Cc1cncc2c1c(CC1CN(CC(=O)N3CCC(F)(F)C3)C1)cn2-c1ccc(F)cc1C(=O)N(C)C(C)C [Compound 96],IC50,"MEIS1 mRNA expression; Homo sapiens, MOLM-14, 48 h",3690 nM
same,IC50,[1],4.57 nM
Cc1cncc2c1c(CC1CN(CC(=O)N3CC4CC4C3)C1)cn2-c1ccc(F)cc1C(=O)N(C)C(C)C (stereo not shown) [Compound 97],IC50,"MEIS1 mRNA expression; Homo sapiens, MOLM-14, 48 h",1610 nM
same,IC50,[1],1.97 nM
Cc1cncc2c1c(CC1CN(CC(=O)N3CCCCC3)C1)cn2-c1ccc(F)cc1C(=O)N(C)C(C)C [Compound 98],IC50,"MEIS1 mRNA expression; Homo sapiens, MOLM-14, 48 h",~535 nM
same,IC50,[1],0.747 nM
CC(=O)N1CC(CN2CCC(Cc3cn(-c4ccc(F)cc4C(=O)N(C)C(C)C)c4cncc(C)c34)CC2)C1 [Compound 102],IC50,"MEIS1 mRNA expression; Homo sapiens, MOLM-14, 48 h",> 1000 nM
same,IC50,[1],3.02 nM
Cc1cncc2c1c(CC1CCN(C[C@@H]3CCC(=O)N3)CC1)cn2-c1ccc(F)cc1C(=O)N(C)C(C)C [Compound 105],IC50,"MEIS1 mRNA expression; Homo sapiens, MOLM-14, 48 h",> 1000 nM
same,IC50,[1],0.728 nM
CC(=O)N1CC2(CC(CN3CCC(Cc4cn(-c5ccc(F)cc5C(=O)N(C)C(C)C)c5cncc(C)c45)C3)C2)C1 (stereo not shown) [Compound 107],IC50,"MEIS1 mRNA expression; Homo sapiens, MOLM-14, 48 h",226 nM
same,IC50,[1],0.188 nM
Cc1cncc2c1c(CC1CCN(CC3CCOCC3)CC1)cn2-c1ccc(F)cc1C(=O)N(C)C(C)C [Compound 109],IC50,"MEIS1 mRNA expression; Homo sapiens, MOLM-14, 48 h",53 nM
same,IC50,[1],0.304 nM
Cc1cncc2c1c(CC1CCN(C[C@H]3CCC(=O)N3)CC1)cn2-c1ccc(F)cc1C(=O)N(C)C(C)C [Compound 110],IC50,"MEIS1 mRNA expression; Homo sapiens, MOLM-14, 48 h",~1070 nM
same,IC50,[1],1.8 nM
COCC(=O)N1CC(CN2CCC(Cc3cn(-c4ccc(F)cc4C(=O)N(C)C(C)C)c4cncc(C)c34)CC2)C1 [Compound 111],IC50,"MEIS1 mRNA expression; Homo sapiens, MOLM-14, 48 h",~707 nM
same,IC50,[1],0.745 nM
CC(=O)N1CC[C@@H](CN2CCC(Cc3cn(-c4ccc(F)cc4C(=O)N(C)C(C)C)c4cncc(C)c34)CC2)C1 [Compound 112],IC50,"MEIS1 mRNA expression; Homo sapiens, MOLM-14, 48 h",345 nM
same,IC50,[1],0.555 nM
